# Patent publication US9510598B2, “Nitrogen-containing heterocyclic compounds for plant disease control” (BAYER CROPSCIENCE AG, priority 2012, dated 2016)
# Like-named read-outs stand apart in the source and are kept apart here.
# Columns and labels:
# [1] = format: physicochemical
# [2] = tested on: Phytophthora infestans; format: in vivo; settings: 500 ppm; tomato plants sprayed 24 hours before contamination; grading 5 days after contamination vs control plants
# [3] = tested on: Septoria tritici; assay: In vivo preventive test on Septoria tritici (leaf spot on wheat); settings: 500 ppm; wheat plants sprayed 24 hours before contamination; grading 21 to 28 days after contamination vs control plants
# How it was run: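 Scipion wheat at 1-leaf stage sprayed with compound, controls receiving acetone/tween/DMSO/water vehicle; 24 h later leaves inoculated with Septoria tritici spores (500 000 spores per ml). Efficacy (%) graded versus control plants 21 to 28 days after contamination.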
# [4] = tested on: Sphaerotheca fuliginea; assay: In vivo preventive test on Sphaerotheca fuliginea (powdery mildew on cucurbits); settings: 500 ppm; gherkin plants sprayed 24 hours before contamination; grading 12 days after contamination vs control plants
# How it was run: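 Preventive spray of gherkin plants at Z11 cotyledon stage, grown at 24° C; inoculation 24 hours later with Sphaerotheca fuliginea spores (100 000 spores per ml). Efficacy graded 12 days post-inoculation as % versus solvent-treated control plants.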
# [5] = tested on: Botrytis cinerea; assay: In vivo preventive test on Botrytis cinerea (grey mould); settings: 500 ppm; gherkin plants sprayed 24 hours before contamination; grading 4-5 days after contamination vs control plants
# How it was run: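 Gherkin plants ("Vert petit de Paris") sprayed with compound at Z11 cotyledon stage, then inoculated 24 h later with B. cinerea spores (50 000/ml) in PDB/fructose/NH4NO3/KH2PO4 nutrient solution. Incubated at 17 °C, 80% RH; % efficacy versus solvent-treated controls graded 4–5 days after contamination.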
# [6] = method [a]: pH 2.7, 0.1% formic acid in water / acetonitrile gradient
# Protocol: Measurement of log P values was performed according EEC directive 79/831 Annex V.A8 by HPLC (High Performance Liquid Chromatography) on reversed phase columns with the following methods: ^[a]
# [7] = method [a]: HPLC/LC-MS on reversed phase at pH 2.7, 0.1% formic acid in water / acetonitrile, gradient 10% to 95% acetonitrile
# [8] = HPLC on reversed phase columns, method [a]: pH 2.7, 0.1% formic acid in water / acetonitrile, linear gradient 10% to 95% acetonitrile
# [9] = method [a]: HPLC/LC-MS on reversed phase at pH 2.7, 0.1% formic acid in water / acetonitrile, linear gradient 10% to 95% acetonitrile
# [10] = HPLC on reversed phase columns, method [a]: pH 2.7, 0.1% formic acid in water and acetonitrile, linear gradient 10% to 95% acetonitrile
structure (smiles),measurement,setting,value
C#Cc1cnc2ccc(C3=NOC(C)(C(=O)NC(C)COC)C3)cc2c1 (racemic) [compound 365],log P,[1]; [7],2.26[a]
same,% of efficacy (protection),[2],79%
same,% of efficacy (protection),[3],100%
same,% of efficacy (protection),[4],98%
CC#Cc1cnc2ccc(C3=NOC(C)(C(=O)NC(C)C)C3)cc2c1 (racemic) [compound 381],log P,[1]; [7],2.73[a]
same,% of efficacy (protection),[2],95%
same,% of efficacy (protection),[3],97%
same,% of efficacy (protection),[4],94%
CCn1cc(CNC(=O)C2(OC)CC(c3ccc4ncc(I)cc4c3)=NO2)c(C)n1 (racemic) [compound 437],log P,[1]; [7],2.44[a]
same,% of efficacy (protection),[2],70%
same,% of efficacy (protection),[4],100%
C#Cc1cnc2ccc(C3=NOC(CC)(C(=O)NCc4cn(CCC)nc4C)C3)cc2c1 (racemic) [compound 445],log P,[1]; [7],2.64[a]
same,% of efficacy (protection),[5],93%
same,% of efficacy (protection),[2],100%
same,% of efficacy (protection),[3],94%
same,% of efficacy (protection),[4],94%
CCCn1cc(CNC(=O)C2(OC)CC(c3ccc4ncc(I)cc4c3)=NO2)c(C)n1 (racemic) [compound 449],log P,[1]; [7],2.73[a]
same,% of efficacy (protection),[5],99%
same,% of efficacy (protection),[2],100%
same,% of efficacy (protection),[3],98%
same,% of efficacy (protection),[4],100%
CCCn1cc(CNC(=O)C2(C)CC(c3cc(Cl)c4ncc(Br)cc4c3)=NO2)c(C)n1 (racemic) [compound 549],log P,[1]; [8],3.06[a]
same,% of efficacy (protection),[5],83%
same,% of efficacy (protection),[2],96%
same,% of efficacy (protection),[3],97%
CCOC(=O)C1(OC)CC(c2cc(Cl)c3ncc(Br)cc3c2)=NO1 (centres unmarked) [II-87],Log P,"[6]; Table 2, formula (II)",3.69[a]
CSC1(C(=O)O)CC(c2ccc3ncc(Br)cc3c2)=NO1 (centres unmarked) [II-88],Log P,"[6]; Table 2, formula (II)",2.01[a]
COC1(C(=O)O)CC(c2cc(Cl)c3ncc(Br)cc3c2)=NO1 (centres unmarked) [II-89],Log P,"[6]; Table 2, formula (II)",2.19[a]
C#Cc1cnc2c(Cl)cc(C3=NOC(OC)(C(=O)O)C3)cc2c1 (centres unmarked) [II-90],Log P,"[6]; Table 2, formula (II)",1.95[a]
CCOC(=O)C1(OC)CC(c2cc(C)c3ncc(Br)cc3c2)=NO1 (centres unmarked) [II-91],Log P,"[6]; Table 2, formula (II)",3.99[a]
COC1(C(=O)O)CC(c2cc(C)c3ncc(Br)cc3c2)=NO1 (centres unmarked) [II-92],Log P,"[6]; Table 2, formula (II)",2.42[a]
C#Cc1cnc2c(C)cc(C3=NOC(OC)(C(=O)O)C3)cc2c1 (centres unmarked) [II-93],Log P,"[6]; Table 2, formula (II)",2.07[a]
N#CC1(C(=O)O)CC(c2ccc3ncc(Br)cc3c2)=NO1 (centres unmarked) [II-94],Log P,"[6]; Table 2, formula (II)",1.42[a]
COC(=O)C1(C)CC(c2ccc3ncc(Br)c(Cl)c3c2)=NO1 (centres unmarked) [II-95],Log P,"[6]; Table 2, formula (II)",3.29[a]
CC1(C(=O)O)CC(c2ccc3ncc(Br)c(Cl)c3c2)=NO1 (centres unmarked) [II-96],Log P,"[6]; Table 2, formula (II)",2.34[a]
ON=Cc1cc2cccnc2c(F)c1F [V-01],Log P,"[6]; Table 3, formula (V)",1.48[a]
ON=C(Cl)c1cc2cccnc2c(F)c1F [V-02],Log P,"[6]; Table 3, formula (V)",2.04[a]
ON=C(Cl)c1cc2cc(Br)cnc2c(F)c1F [V-03],Log P,"[6]; Table 3, formula (V)",2.92[a]
ON=Cc1cc2cc(Br)cnc2cc1F [V-05],Log P,"[6]; Table 3, formula (V)",2.21[a]
ON=C(Cl)c1cc2cc(Br)cnc2cc1F [V-06],Log P,"[6]; Table 3, formula (V)",2.63[a]
ON=Cc1ccc2ncc(I)cc2c1 [V-07],Log P,"[6]; Table 3, formula (V)",1.98[a]
ON=C(Cl)c1ccc2ncc(I)cc2c1 [V-08],Log P,"[6]; Table 3, formula (V)",2.63[a]
ON=Cc1ccc2ncc(Br)cc2c1 [V-09],Log P,"[6]; Table 3, formula (V)",1.88[a]
ON=C(Cl)c1ccc2ncc(Br)cc2c1 [V-10],Log P,"[6]; Table 3, formula (V)",2.52[a]
ON=Cc1ccc2ncc(Cl)cc2c1 [V-11],Log P,"[6]; Table 3, formula (V)",1.78[a]
ON=Cc1ccc2ncc(I)cc2c1 [V-13],Log P,"[6]; Table 3, formula (V)",2.08[a]
ON=C(Cl)c1ccc2ncc(I)cc2c1 [V-14],Log P,"[6]; Table 3, formula (V)",2.77[a]
C#Cc1cnc2c(C)cc(C=NO)cc2c1 [V-15],Log P,"[6]; Table 3, formula (V)",2.21[a]
Cc1cc(C=NO)cc2cc(Br)cnc12 [V-16],Log P,"[6]; Table 3, formula (V)",2.61[a]
ON=Cc1cc(Cl)c2ncc(Br)cc2c1 [V-17],Log P,"[6]; Table 3, formula (V)",2.40[a]
ON=C(Cl)c1cc(Cl)c2ncc(Br)cc2c1 [V-18],Log P,"[6]; Table 3, formula (V)",3.10[a]
Cc1cc(C(Cl)=NO)cc2cc(Br)cnc12 [V-19],Log P,"[6]; Table 3, formula (V)",3.37[a]
ON=Cc1ccc2ncc(Br)c(Cl)c2c1 [V-21],Log P,"[6]; Table 3, formula (V)",2.43[a]
ON=C(Cl)c1ccc2ncc(Br)c(Cl)c2c1 [V-22],Log P,"[6]; Table 3, formula (V)",3.16[a]
ON=Cc1cc(F)c2ncc(Br)cc2c1 [V-23],Log P,"[6]; Table 3, formula (V)",2.08[a]
C#Cc1cnc2ccc(C3=NOC(C)(C(=O)NCc4c(C)nn(CC)c4C)C3)cc2c1 (centres unmarked) [compound 87],log P,[1]; [9],2.08^[a]
same,% of efficacy (protection),[5],97%
same,% of efficacy (protection),[2],100%
same,% of efficacy (protection),[4],89%
CCn1nc(C)c(CNC(=O)C2(C)CC(c3ccc4ncc(Br)cc4c3)=NO2)c1C (centres unmarked) [compound 88],log P,[1]; [9],2.32^[a]
same,% of efficacy (protection),[2],100%
C#Cc1cnc2ccc(C3=NOC(C)(C(=O)NCc4cnn(CC)c4)C3)cc2c1 (centres unmarked) [compound 181],log P,[1]; [9],2.04^[a]
same,% of efficacy (protection),[5],92%
same,% of efficacy (protection),[2],92%
same,% of efficacy (protection),[4],98%
CCn1cc(CNC(=O)C2(C)CC(c3ccc4ncc(Br)cc4c3)=NO2)cn1 (centres unmarked) [compound 182],log P,[1]; [9],2.27^[a]
same,% of efficacy (protection),[5],99%
same,% of efficacy (protection),[2],83%
same,% of efficacy (protection),[4],98%
C#Cc1cnc2ccc(C3=NOC(C)(C(=O)NCc4c(C)nn(C)c4C)C3)cc2c1 (centres unmarked) [compound 183],log P,[1]; [9],1.91^[a]
same,% of efficacy (protection),[2],86%
same,% of efficacy (protection),[3],86%
C#Cc1cnc2ccc(C3=NOC(C)(C(=O)NCc4ccnc(N5CCOCC5)c4)C3)cc2c1 (centres unmarked) [compound 194],log P,[1]; [9],1.36^[a]
same,% of efficacy (protection),[2],94%
C#Cc1cnc2ccc(C3=NOC(C)(C(=O)NCc4c(C)nn(C(C)C)c4C)C3)cc2c1 (centres unmarked) [compound 196],log P,[1]; [9],2.32^[a]
same,% of efficacy (protection),[2],94%
CC(C)n1cc(CNC(=O)C2(C)CC(c3ccc4ncc(Br)cc4c3)=NO2)cn1 (centres unmarked) [compound 199],log P,[1]; [9],2.5^[a]
same,% of efficacy (protection),[5],99%
same,% of efficacy (protection),[2],92%
same,% of efficacy (protection),[4],98%
CC1(C(=O)NCc2cnn(Cc3ccccc3)c2)CC(c2ccc3ncc(Br)cc3c2)=NO1 (centres unmarked) [compound 201],log P,[1]; [9],2.94^[a]
same,% of efficacy (protection),[2],92%
same,% of efficacy (protection),[3],86%
CON=CC(C)(C)NC(=O)C1(C)CC(c2ccc3ncc(Br)cc3c2)=NO1 (centres unmarked) [compound 298],log P,[1]; [8],3.29[a]
same,% of efficacy (protection),[5],87%
same,% of efficacy (protection),[2],100%
same,% of efficacy (protection),[3],100%
CCn1cc(C(C)NC(=O)C2(C)CC(c3ccc4ncc(Br)cc4c3)=NO2)c(C)n1 (centres unmarked) [compound 312],log P,[1]; [8],2.52[a]
same,% of efficacy (protection),[2],100%
same,% of efficacy (protection),[3],100%
same,% of efficacy (protection),[4],94%
C#Cc1cnc2ccc(C3=NOC(C)(C(=O)NC(C)C4=NOCC4)C3)cc2c1 (centres unmarked) [compound 338],log P,[1]; [8],2.08[a]
same,% of efficacy (protection),[2],92%
same,% of efficacy (protection),[3],100%
same,% of efficacy (protection),[4],100%
C#Cc1cnc2ccc(C3=NOC(C)(C(=O)NC(C)c4cn(CC)nc4C)C3)cc2c1 (centres unmarked) [compound 351],log P,[1]; [8],2.28[a]
same,% of efficacy (protection),[2],100%
same,% of efficacy (protection),[3],100%
same,% of efficacy (protection),[4],98%
CCCn1cc(CNC(=O)C2(C)CC(c3ccc4ncc(I)cc4c3)=NO2)c(C)n1 (centres unmarked) [compound 455],log P,[1]; [7],2.75[a]
same,% of efficacy (protection),[5],98%
same,% of efficacy (protection),[2],100%
same,% of efficacy (protection),[4],98%
C#Cc1cnc2ccc(C3=NOC(C)(C(=O)NCc4cn(C(C)C)nc4C)C3)cc2c1 (centres unmarked) [compound 461],log P,[1]; [7],2.34[a]
same,% of efficacy (protection),[5],99%
same,% of efficacy (protection),[2],100%
same,% of efficacy (protection),[4],98%
C#Cc1cnc2ccc(C3=NOC(C)(C(=O)NC(C)(C)c4nc(C)cs4)C3)cc2c1 (centres unmarked) [compound 516],log P,[1]; [8],2.92[a]
same,% of efficacy (protection),[5],100%
same,% of efficacy (protection),[2],73%
C#Cc1cnc2c(Cl)cc(C3=NOC(C)(C(=O)NCc4cn(CCC)nc4C)C3)cc2c1 (centres unmarked) [compound 551],log P,[1]; [8],2.78[a]
same,% of efficacy (protection),[5],98%
same,% of efficacy (protection),[2],81%
same,% of efficacy (protection),[3],93%
C=CC1(C(=O)NCc2cn(CC)nc2C)CC(c2ccc3ncc(I)cc3c2)=NO1 (centres unmarked) [compound 728],log P,[1]; [10],2.75[a]
same,% of efficacy (protection),[5],97%
same,% of efficacy (protection),[2],100%
same,% of efficacy (protection),[4],100%
C=CC1(C(=O)NCCCOCC)CC(c2ccc3ncc(Br)cc3c2)=NO1 (centres unmarked) [compound 733],log P,[1]; [10],3.06[a]
same,% of efficacy (protection),[2],100%
same,% of efficacy (protection),[3],92%
same,% of efficacy (protection),[4],98%
